Where a name gives a salt, the structure may show the parent alone.
System: LDL receptor
Experiment: Effects on an activity of a LDL receptor: uptake amount of DiI-LDL into HepG2 cell
Assay type: cell-based, human
Details: 1 μM, control group as 100%
Protocol: The 1,1′-dioctadecyl-3,3,3′,3′-tetramethylindocarbocyanine perchlorate (DiI)-labeled LDL (DiI-LDL) was prepared as follows. That is, a DiI (Invitrogen Corp., U.S.A) was mixed with a human LDL (Chemicon International, Inc., U.S.A) and the mixture was incubated at 37° C. for 8 hours. […] After centrifugation, the DiI-labeled LDL fraction was separated and dialyzed with a physiological saline to prepare the above desired solution.
The effects on a LDL receptor activity were determined as the uptake amount of DiI-LDL into HepG2 cell. The cultured human hepatic cell line HepG2 cell was purchased from the Dainippon Pharmaceuticals Co. Ltd. (Osaka, Japan). The HepG2 cells were seeded in a 96 well plate and were incubated in the Dulbecco's modified Eagle/F-12 (DMEM/F-12) medium containing 10% fetal bovine serum and antibiotics in a CO2 incubator at 37° C. for two to three days. After washing the cells, a DMEM/F-12 medium containing 5-10% lipoprotein-deficient serum, the test substrate and the antibiotics were added thereto and the cells were incubated at 37° C. for 19 hours. After adding DiI-LDL, the cells were incubated in a CO2 incubator at 37° C. for another 5 hours. The uptake amount of non-specific DiI-LDL was measured by adding 30 to 50 folds amount of the non-labeled LDL. After washing the cells with Dulbecco's phosphate buffer (Sigma Corp., U.S.A.), the Dulbecco's phosphate buffer was added to each well and then the uptake amount of DiI-LDL into the cell line were measured as the value of fluorescence. After measuring the fluorescence, the Dulbecco's phosphate buffer was removed and thereto was added 1N sodium hydroxide solution to dissolve the cells and the amount of protein was measured by using a part of the resulting solution. The effect on a LDL receptor activity by each compound was determined by calculating the ratio of the amount of fluorescence/the amount of protein, and by subtracting the non-specific uptake amount therefrom and then calculating the control group as 100%.

In order of falling “Activity of (%) LDL receptor” value:
1. COc1cccc([C@]2(CNS(C)(=O)=O)CC[C@@H](NCc3ccc(-c4ccccc4)cc3)CC2)c1 [Example 24, N-{[cis-4-[(biphenyl-4-ylmethyl)amino]-1-(3-methoxyphenyl)cyclohexyl]methyl}methanesulfonamide]  238%
2. COc1cccc([C@]2(CNS(N)(=O)=O)CC[C@@H](NCc3ccc(-c4ccccc4)cc3)CC2)c1.Cl [Example 42, N-{[cis-4-[(biphenyl-4-ylmethyl)amino]-1-(3-methoxyphenyl)cyclohexyl]methyl}sulfamide hydrochloride]  188%
3. COc1cccc([C@]2(CNS(N)(=O)=O)CC[C@@H](NC(C)c3ccccc3)CC2)c1 (stereo partly drawn) [Example 20, N-({cis-1-(3-methoxyphenyl)-4-[(1-phenylethyl)amino]-cyclohexyl}methyl)sulfamide]  128%

Same assay, conditions: 3 μM, control group as 100%

In order of rising “Activity of (%) LDL receptor” value:
1. COc1cccc([C@]2(CNS(N)(=O)=O)CC[C@H](NCc3ccc(-c4ccccc4)cc3)CC2)c1 [Example 43, N-{[trans-4-[(biphenyl-4-ylmethyl)amino]-1-(3-methoxyphenyl)cyclohexyl]methyl}sulfamide hydrochloride]  146%
2. COc1cccc([C@]2(CNS(=O)(=O)c3ccc(C)cc3)CC[C@@H](NCc3ccc(-c4ccccc4)cc3)CC2)c1 [Example 25, N-{[cis-4-[(biphenyl-4-ylmethyl)amino]-1-(3-methoxyphenyl)cyclohexyl]methyl}-4-methylbenzenesulfonamide]  153%
3. COc1cccc([C@]2(CCNS(N)(=O)=O)CC[C@@H](NCc3ccc(-c4ccccc4)cc3)CC2)c1.Cl [Example 22, N-{2-[trans-4-[(biphenyl-4-ylmethyl)amino]-1-(3-methoxyphenyl)cyclohexyl]ethyl}sulfamide hydrochloride]  156%

Same assay, conditions: 10 μM, control group as 100%

In order of falling “Activity of (%) LDL receptor” value:
1. COc1cccc(C2(C(=O)NS(N)(=O)=O)CCN(c3ncccn3)CC2)c1 [Example 28-1, N-(aminosulfonyl)-4-(3-methoxyphenyl)-1-pyrimidin-2-ylpiperidine-4-carboxamide]  186%
2. COc1cccc([C@]2(CNS(=O)(=O)NC(=O)OC(C)(C)C)CC[C@@H](NCc3ccc(-c4ccccc4)cc3)CC2)c1 [Example 41, tert-butyl [({[cis-4-[(biphenyl-4-ylmethyl)amino]-1-(3-methoxyphenyl)cyclohexyl]methyl}amino)sulfonyl]carbamate]  173%
3. COc1cccc([C@]2(CNS(N)(=O)=O)CC[C@@H](NCc3ccc(S(N)(=O)=O)cc3)CC2)c1.Cl [Example 38, 4-({[cis-4-{[(aminosulfonyl)amino]methyl}-4-(3-methoxyphenyl)cyclohexyl]amino}methyl)benzenesulfonamide hydrochloride]  150%
4. COc1cccc(C2(NS(=O)(=O)NC(=O)c3ccc(Cl)cc3)CCN(c3ncccn3)CC2)c1 [Example 34, 4-chloro-N-({[4-(3-methoxyphenyl)-1-pyrimidin-2-yl-piperidin-4-yl]amino}sulfonyl)benzamide]  139%
5. COc1cccc(C2(C(=O)NS(=O)(=O)NC(C)c3ccccc3)CCN(c3ncccn3)CC2)c1 (stereo not shown) [Example 28-6, 4-(3-methoxyphenyl)-N-{[(1-phenylethyl)amino]sulfonyl}-1-pyrimidin-2-ylpiperidine-4-carboxamide]  127%
6. COc1cccc(C2(CNS(=O)(=O)c3ccc(C)cc3)CCN(C(c3ccccc3)c3ccccc3)CC2)c1 [Example 36, N-{[1-(diphenylmethyl)-4-(3-methoxyphenyl)piperidin-4-yl]methyl}-4-methylbenzenesulfonamide]  122%
7. COc1cccc(C2(CNS(C)(=O)=O)CCN(c3ccccc3OC)CC2)c1 [Example 27-1, N-{[1-(2-methoxyphenyl)-4-(3-methoxyphenyl)piperidin-4-yl]methyl}methanesulfonamide]  108%
